Measured values reported in the supplement of paper PMC11061612.

Experiments:
Assay in all cases: Bliss excess, mean over the matrix (fraction); higher = more synergy
[1] = tested on: NCI-H1355 (Lung Adenocarcinoma)
In short: (§1)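 Cell lines grown in DMEM/F12 or RPMI with 10% FBS were plated in 1536-well plates and held 24 hours at 37°C, 5% CO2 before 72 hours of exposure to two-drug dose matrices, with DMSO typically at 0.2%. CellTiter-Glo 2.0 luminescence gave viability, which was converted to inhibition. Vehicle wells were set to 0 and blank wells to 1. Combination Emax is the second-highest inhibition in the matrix, and Bliss excess is the observed combination effect minus the expected EA + EB − EA·EB, where EA and EB are the single-agent effects.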

[2] = tested on: MV-4-11 (Acute Myeloid Leukemia)
In short: as §1

[3] = tested on: SKN (Other Solid Carcinomas)
In short: as §1

[4] = tested on: NCI-H1993 (Lung Adenocarcinoma)
In short: as §1

[5] = tested on: MOG-G-UVW (Low Grade Glioma)
In short: as §1

[6] = tested on: Mo-T (Other Blood Carcinomas)
In short: as §1

[7] = tested on: KGN (Other Solid Carcinomas)
In short: as §1

SK-N-AS (Neuroblastoma) = tested on: SK-N-AS (Neuroblastoma)
In short: as §1

[8] = tested on: DU-145 (Prostate Carcinoma)
In short: as §1

[9] = tested on: SW982 (Other Solid Carcinomas)
In short: as §1

[10] = tested on: SNU-387 (Hepatocellular Carcinoma)
In short: as §1

[11] = tested on: Ca-Ski (Cervical Carcinoma)
In short: as §1

[12] = tested on: COLO-668 (Small Cell Lung Carcinoma)
In short: as §1

COLO-679 (Melanoma) = tested on: COLO-679 (Melanoma)
In short: as §1

[13] = tested on: MDA-MB-453 (Breast Carcinoma)
In short: as §1

[14] = tested on: HAL-01 (B-Lymphoblastic Leukemia)
In short: as §1

[15] = tested on: EFO-21 (Ovarian Carcinoma)
In short: as §1

[16] = tested on: ME-180 (Cervical Carcinoma)
In short: as §1

[17] = tested on: ML-2 (Acute Myeloid Leukemia)
In short: as §1

[18] = tested on: A4-Fuk (B-Lymphoblastic Leukemia)
In short: as §1

| Compound | Bliss excess [1] | Bliss excess [2] | Bliss excess [3] | Bliss excess [4] | Bliss excess [5] | Bliss excess [6] | Bliss excess [7] | Bliss excess (SK-N-AS (Neuroblastoma)) | Bliss excess [8] | Bliss excess [9] | Bliss excess [10] | Bliss excess [11] | Bliss excess [12] | Bliss excess (COLO-679 (Melanoma)) | Bliss excess [13] | Bliss excess [14] | Bliss excess [15] | Bliss excess [16] | Bliss excess [17] | Bliss excess [18] |
| --- | --- | --- | --- | --- | --- | --- | --- | --- | --- | --- | --- | --- | --- | --- | --- | --- | --- | --- | --- | --- |
| N#Cc1cnc(Nc2cc(NC[C@H]3CNCCO3)c(C(F)(F)F)cn2)cn1 [SRA737] + O=c1[nH]cc(F)c(=O)[nH]1 [5-Fluorouracil] (first compound max 10 µM, 7x7, partner max 20 µM) | 0.0349 | 0.004 | -0.0266 | 0.059 | 0.0006 | 0.0056 | 0.002 | -0.0291 | 0.0735 | 0.0157 | 0.0472 | 0.0604 | 0.0106 | -0.148 | 0.108 | -0.0463 | -0.006 | 0.0272 | -0.0476 | 0.0129 |
| N#Cc1cnc(Nc2cc(NC[C@H]3CNCCO3)c(C(F)(F)F)cn2)cn1 [SRA737] + CCc1c2c(nc3ccc(O)cc13)-c1cc3c(c(=O)n1C2)COC(=O)[C@]3(O)CC [SN-38] (first compound max 10 µM, 7x7, partner max 0.3 µM) | 0.071 | -0.0337 | 0.0673 | 0.0615 | 0.0034 | -0.0363 | -0.0554 | 0.0144 | -0.0338 | -0.0929 | 0.0321 | 0.0291 | -0.0688 | -0.13 | -0.0401 | -0.0125 | -0.0498 | 0.0247 | -0.0549 | -0.0229 |
| CN(CCO)CC[C@H](CSc1ccccc1)Nc1ccc(S(=O)(=O)NC(=O)c2ccc(N3CCC([C@@H](O)c4ccccc4-c4ccc(Cl)cc4)CC3)cc2)cc1S(=O)(=O)C(F)(F)F [AZD4320] + CCN(CCO)CCCOc1ccc2c(Nc3cc(CC(=O)Nc4cccc(F)c4)[nH]n3)ncnc2c1 [AZD2811] (first compound max 1 µM, 7x7, partner max 1 µM) | -0.0133 | 0.0064 | 0.0383 | -0.0043 | 0.03 | -0.003 | -0.0739 | -0.0041 | -0.0341 | 0.0447 | -0.0127 | 0.119 | 0.0302 | 0.0201 | 0.0154 | -0.0085 | -0.0616 | 0.0343 | 0.0557 | 0.0624 |
| CN(CCO)CC[C@H](CSc1ccccc1)Nc1ccc(S(=O)(=O)NC(=O)c2ccc(N3CCC([C@@H](O)c4ccccc4-c4ccc(Cl)cc4)CC3)cc2)cc1S(=O)(=O)C(F)(F)F [AZD4320] + Nc1ccn([C@@H]2O[C@H](CO)[C@@H](O)C2(F)F)c(=O)n1 [Gemcitabine] (first compound max 1 µM, 7x7, partner max 0.3 µM) | -0.0349 | -0.023 | 0.0198 | -0.0164 | -0.0147 | 0.114 | -0.0204 | 0.0011 | -0.033 | 0.0339 | -0.0646 | 0.0469 | 0.0417 | -0.0226 | 0.0093 | 0.0448 | 0.0353 | -0.0249 | 0.0042 | -0.0912 |
| COc1cc2ncnc(Nc3ccc(F)c(Cl)c3)c2cc1OCCCN1CCOCC1 [Gefitinib] + CC(C)n1c(=O)n(C)c2cnc3cc(F)c(-c4ccc(OCCCN5CCCCC5)nc4)cc3c21 [AZD1390] (first compound max 10 µM, 7x7, partner max 0.3 µM) | -0.039 | -0.0534 | -0.0548 | -0.0506 | -0.0401 | -0.0475 | -0.0632 | -0.0588 | -0.06 | -0.0861 | -0.0714 | -0.0785 | -0.0333 | -0.0901 | -0.0171 | 0 | -0.0875 | -0.0413 | -0.0237 | -0.0704 |
| COc1cc2c(cc1OCCCCCOc1cc3c(cc1OC)C(=O)N1C=C(C)C[C@H]1C=N3)N=C[C@@H]1CC(C)=CN1C2=O [SG3199] + O=C(c1cc(Cc2n[nH]c(=O)c3ccccc23)ccc1F)N1CCN(C(=O)C2CC2)CC1 [Olaparib] (first compound max 0.001 µM, 7x7, partner max 10 µM) | -0.0503 | 0.0066 | -0.0373 | -0.0352 | -0.0081 | 0.0118 | -0.04 | -0.0176 | -0.0361 | -0.0195 | -0.0533 | -0.0425 | -0.0003 | -0.0285 | -0.0226 | 0.0067 | -0.0709 | -0.0495 | 0.0179 | -0.0267 |
| Cc1cc2ncnn2cc1Nc1ncc2c(n1)n(C1CCOCC1)c(=O)n2C [AZD7648] + C[C@@H]1COCCN1C2=NC(=NC(=C2)C3(CC3)[S@](=N)(=O)C)C4=C5C=CNC5=NC=C4 [AZD6738] (first compound max 10 µM, 7x7, partner max 10 µM) | 0.0296 | -0.0469 | 0.0038 | 0.0469 | 0.0717 | -0.0956 | 0.0439 | 0.0381 | -0.0068 | -0.096 | -0.0236 | 0.0404 | 0.0093 | -0.0486 | 0.0076 | -0.0048 | 0.053 | -0.002 | -0.0817 | -0.0768 |
| CN(CCO)CC[C@H](CSc1ccccc1)Nc1ccc(S(=O)(=O)NC(=O)c2ccc(N3CCC([C@@H](O)c4ccccc4-c4ccc(Cl)cc4)CC3)cc2)cc1S(=O)(=O)C(F)(F)F [AZD4320] + Cn1cnc2c(F)c(Nc3ccc(Br)cc3Cl)c(C(=O)NOCCO)cc21 [Selumetinib] (first compound max 1 µM, 7x7, partner max 3 µM) | 0.0529 | 0.0513 | -0.0209 | -0.0307 | -0.0034 | 0.0434 | 0.0113 | -0.0204 | 0.0057 | -0.0042 | 0.0149 | 0.0763 | 0.114 | 0.0716 | -0.0218 | -0.0053 | -0.0084 | 0.0771 | 0.0723 | 0.073 |
| CN(CCO)CC[C@H](CSc1ccccc1)Nc1ccc(S(=O)(=O)NC(=O)c2ccc(N3CCC([C@@H](O)c4ccccc4-c4ccc(Cl)cc4)CC3)cc2)cc1S(=O)(=O)C(F)(F)F [AZD4320] + C1CN(CCC1(C(=O)N[C@@H](CCO)C2=CC=C(C=C2)Cl)N)C3=NC=NC4=C3C=CN4 [Capivasertib] (first compound max 1 µM, 7x7, partner max 3 µM) | -0.0648 | 0.0185 | -0.0279 | -0.0592 | -0.0318 | -0.0137 | -0.0839 | -0.0397 | -0.0342 | -0.0426 | -0.0399 | 0.0249 | 0.034 | -0.0431 | -0.0534 | 0.0022 | -0.0827 | -0.0238 | -0.0659 | -0.0013 |
| C[C@@H](c1ccc2nccn2c1)n1nnc2ncc(-c3cnn(C)c3)nc21 [Savolitinib] + Cc1c2c(nn1C)CSCc1cc(n(C)n1)CSc1cc(c3ccccc3c1)OCCCc1c(C(=O)O)n(C)c3c-2c(Cl)ccc13 [AZD5991] (first compound max 1 µM, 7x7, partner max 1 µM) | -0.0155 | -0.034 | -0.0279 | -0.0338 | 0.0359 | -0.056 | -0.0302 | -0.0749 | -0.0361 | -0.0647 | -0.0858 | -0.0287 | -0.0417 | -0.0398 | 0.0354 | 0.0173 | -0.0454 | -0.0651 | -0.0082 | 0.0027 |
| Cc1c2c(nn1C)CSCc1cc(n(C)n1)CSc1cc(c3ccccc3c1)OCCCc1c(C(=O)O)n(C)c3c-2c(Cl)ccc13 [AZD5991] + Cn1cnc2c(F)c(Nc3ccc(Br)cc3Cl)c(C(=O)NOCCO)cc21 [Selumetinib] (first compound max 1 µM, 7x7, partner max 3 µM) | -0.0258 | 0.0172 | -0.0276 | 0.0043 | -0.0869 | -0.0167 | -0.0338 | -0.0277 | 0.003 | 0.0248 | 0.064 | 0.0502 | 0.106 | -0.0191 | 0.0055 | 0.062 | -0.0248 | -0.0192 | 0.0659 | – |
| CN(CCO)CC[C@H](CSc1ccccc1)Nc1ccc(S(=O)(=O)NC(=O)c2ccc(N3CCC([C@@H](O)c4ccccc4-c4ccc(Cl)cc4)CC3)cc2)cc1S(=O)(=O)C(F)(F)F [AZD4320] + C[C@@H]1COCCN1C2=NC(=NC(=C2)C3(CC3)[S@](=N)(=O)C)C4=C5C=CNC5=NC=C4 [AZD6738] (first compound max 1 µM, 7x7, partner max 10 µM) | -0.0273 | -0.0066 | -0.0394 | -0.0073 | -0.0396 | 0.0358 | -0.0198 | -0.0421 | -0.0335 | -0.0374 | -0.0443 | -0.006 | 0.0325 | -0.0266 | -0.0453 | 0.0405 | -0.0312 | 0.0005 | 0.0597 | -0.0169 |
| N#Cc1cnc(Nc2cc(NC[C@H]3CNCCO3)c(C(F)(F)F)cn2)cn1 [SRA737] + Nc1ccn([C@@H]2O[C@H](CO)[C@@H](O)C2(F)F)c(=O)n1 [Gemcitabine] (first compound max 10 µM, 7x7, partner max 0.3 µM) | 0.0299 | -0.0314 | -0.0073 | 0.0158 | 0.0876 | -0.0134 | 0.0342 | -0.0283 | 0.0276 | 0.0238 | 0.102 | 0.0666 | -0.0355 | -0.0808 | -0.0075 | 0.0046 | 0.0169 | – | 0.061 | 0.0278 |
| N#Cc1cnc(Nc2cc(NC[C@H]3CNCCO3)c(C(F)(F)F)cn2)cn1 [SRA737] + C=CCn1c(=O)c2cnc(Nc3ccc(N4CCN(C)CC4)cc3)nc2n1-c1cccc(C(C)(C)O)n1 [AZD1775] (first compound max 10 µM, partner max 1 µM) | -0.0046 | 0.0409 | -0.0293 | 0.194 | 0.0652 | -0.0097 | 0.0807 | 0.0512 | -0.0105 | 0.0316 | 0.03 | 0.117 | 0.151 | -0.107 | 0.0927 | 0.0645 | – | -0.0149 | 0.0592 | 0.0277 |
